From the supplement of paper PMC10307832

Columns and labels:
Test in all cases: relative viability (nuclei count vs DMSO), 5 days (fraction); higher = more cells survive
NCI-H1792 = system: NCI-H1792
Outline: (§1)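 The day after seeding in 1536-well plates, lung cancer cell lines were treated by pin tool with a single drug, or with a fixed anchor-drug dose together with five library-drug doses (not always all listed) in √10 steps. After 5 days, a combined fix-and-stain solution (final 0.05% Triton X-100, 1% formaldehyde, 1 ug/ml Hoechst) was added. Nuclei counted on 4× images gave relative viability as treated counts over vehicle counts, reported as the median of duplicate plates.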

LOU-NH91 = system: LOU-NH91
Outline: as §1

NCI-H1437 = system: NCI-H1437
Outline: as §1

NCI-H2170 = system: NCI-H2170
Outline: as §1

NCI-H23 = system: NCI-H23
Outline: as §1

NCI-H322M = system: NCI-H322M
Outline: as §1

ChaGo-K-1 = system: ChaGo-K-1
Outline: as §1

NCI-H1755 = system: NCI-H1755
Outline: as §1

HOP-62 = system: HOP-62
Outline: as §1

NCI-H650 = system: NCI-H650
Outline: as §1

NCI-H1355 = system: NCI-H1355
Outline: as §1

NCI-H2405 = system: NCI-H2405
Outline: as §1

LCLC-97TM1 = system: LCLC-97TM1
Outline: as §1

NCI-H441 = system: NCI-H441
Outline: as §1

ABC-1 = system: ABC-1
Outline: as §1

RERF-LC-KJ = system: RERF-LC-KJ
Outline: as §1

HCC-78 = system: HCC-78
Outline: as §1

NCI-H727 = system: NCI-H727
Outline: as §1

NCI-H2085 = system: NCI-H2085
Outline: as §1

With `Cc1cnc(-c2cnc(NCCNc3ccc(C#N)cn3)nc2-c2ccc(Cl)cc2Cl)[nH]1` + NC(=O)Nc1cc(-c2cccc(F)c2)sc1C(=O)N[C@H]1CCCNC1 [AZD7762] (partner 0.2 µM) as the molecule, how does the relative viability (NCI-H1792; first compound 0.08 µM) read?
The relative viability was 0.8.

And the relative viability (NCI-H1792; first compound 0.253 µM)?
Its relative viability is 0.611.

What about the relative viability (NCI-H1792; first compound 0.8 µM) of the same molecule?
The relative viability was 0.594.

What about the relative viability (NCI-H1792; first compound 2.53 µM) of the same molecule?
The relative viability was 0.446.

And the relative viability (LOU-NH91; first compound 0.08 µM)?
Its relative viability is 0.823.

What about the relative viability (LOU-NH91; first compound 0.253 µM) of the same molecule?
The relative viability was 0.753.

And the relative viability (LOU-NH91; first compound 0.8 µM)?
Its relative viability is 0.768.

And the relative viability (LOU-NH91; first compound 2.53 µM)?
Its relative viability is 0.83.

And the relative viability (NCI-H1437; first compound 0.08 µM)?
Its relative viability is 1.17.

And the relative viability (NCI-H1437; first compound 0.253 µM)?
Its relative viability is 1.06.

And the relative viability (NCI-H1437; first compound 0.8 µM)?
The relative viability was 1.06.

What about the relative viability (NCI-H1437; first compound 2.53 µM) of the same molecule?
The relative viability was 1.01.

And the relative viability (NCI-H2170; first compound 0.08 µM)?
The relative viability was 1.01.

What about the relative viability (NCI-H2170; first compound 0.8 µM) of the same molecule?
Its relative viability is 0.774.

What about the relative viability (NCI-H2170; first compound 2.53 µM) of the same molecule?
Its relative viability is 0.695.

And the relative viability (NCI-H23; first compound 0.08 µM)?
Its relative viability is 0.313.

What about the relative viability (NCI-H23; first compound 0.253 µM) of the same molecule?
The relative viability was 0.16.

What about the relative viability (NCI-H23; first compound 0.8 µM) of the same molecule?
Its relative viability is 0.247.

What about the relative viability (NCI-H23; first compound 2.53 µM) of the same molecule?
Its relative viability is 0.256.

And the relative viability (NCI-H322M; first compound 0.08 µM)?
The relative viability was 0.526.

And the relative viability (NCI-H322M; first compound 0.253 µM)?
The relative viability was 0.546.

What about the relative viability (NCI-H322M; first compound 0.8 µM) of the same molecule?
Its relative viability is 0.566.

What about the relative viability (NCI-H322M; first compound 2.53 µM) of the same molecule?
Its relative viability is 0.675.

And the relative viability (ChaGo-K-1; first compound 0.08 µM)?
The relative viability was 0.843.

What about the relative viability (ChaGo-K-1; first compound 0.253 µM) of the same molecule?
Its relative viability is 0.754.

What about the relative viability (ChaGo-K-1; first compound 0.8 µM) of the same molecule?
Its relative viability is 0.82.

And the relative viability (ChaGo-K-1; first compound 2.53 µM)?
Its relative viability is 0.814.

What about the relative viability (NCI-H1755; first compound 0.08 µM) of the same molecule?
The relative viability was 0.459.

And the relative viability (NCI-H1755; first compound 0.253 µM)?
Its relative viability is 0.445.

And the relative viability (NCI-H1755; first compound 0.8 µM)?
The relative viability was 0.404.

What about the relative viability (NCI-H1755; first compound 2.53 µM) of the same molecule?
The relative viability was 0.443.

And the relative viability (HOP-62; first compound 0.08 µM)?
The relative viability was 0.817.

And the relative viability (HOP-62; first compound 0.253 µM)?
Its relative viability is 0.383.

And the relative viability (HOP-62; first compound 0.8 µM)?
The relative viability was 0.45.

And the relative viability (HOP-62; first compound 2.53 µM)?
Its relative viability is 0.748.

And the relative viability (NCI-H650; first compound 0.08 µM)?
Its relative viability is 0.979.

And the relative viability (NCI-H650; first compound 0.253 µM)?
The relative viability was 0.872.

What about the relative viability (NCI-H650; first compound 0.8 µM) of the same molecule?
Its relative viability is 0.892.

What about the relative viability (NCI-H650; first compound 2.53 µM) of the same molecule?
The relative viability was 1.03.

And the relative viability (NCI-H1355; first compound 0.08 µM)?
The relative viability was 0.831.

What about the relative viability (NCI-H1355; first compound 0.253 µM) of the same molecule?
Its relative viability is 0.624.

And the relative viability (NCI-H1355; first compound 0.8 µM)?
Its relative viability is 0.691.

What about the relative viability (NCI-H1355; first compound 2.53 µM) of the same molecule?
The relative viability was 0.577.

What about the relative viability (NCI-H2405; first compound 0.08 µM) of the same molecule?
Its relative viability is 0.758.

And the relative viability (NCI-H2405; first compound 0.253 µM)?
Its relative viability is 0.595.

And the relative viability (NCI-H2405; first compound 0.8 µM)?
The relative viability was 0.744.

And the relative viability (NCI-H2405; first compound 2.53 µM)?
The relative viability was 0.333.

And the relative viability (LCLC-97TM1; first compound 0.08 µM)?
Its relative viability is 0.269.

And the relative viability (LCLC-97TM1; first compound 0.253 µM)?
The relative viability was 0.186.

What about the relative viability (LCLC-97TM1; first compound 0.8 µM) of the same molecule?
The relative viability was 0.15.

What about the relative viability (LCLC-97TM1; first compound 2.53 µM) of the same molecule?
The relative viability was 0.235.

What about the relative viability (NCI-H441; first compound 0.08 µM) of the same molecule?
The relative viability was 1.02.

And the relative viability (NCI-H441; first compound 0.8 µM)?
Its relative viability is 0.967.

What about the relative viability (NCI-H441; first compound 2.53 µM) of the same molecule?
The relative viability was 0.993.

And the relative viability (ABC-1; first compound 0.253 µM)?
Its relative viability is 0.772.

What about the relative viability (ABC-1; first compound 0.8 µM) of the same molecule?
The relative viability was 0.771.

What about the relative viability (ABC-1; first compound 2.53 µM) of the same molecule?
Its relative viability is 0.862.

What about the relative viability (RERF-LC-KJ; first compound 0.08 µM) of the same molecule?
Its relative viability is 1.08.

What about the relative viability (RERF-LC-KJ; first compound 0.253 µM) of the same molecule?
Its relative viability is 0.801.

What about the relative viability (RERF-LC-KJ; first compound 0.8 µM) of the same molecule?
Its relative viability is 0.881.

And the relative viability (RERF-LC-KJ; first compound 2.53 µM)?
The relative viability was 0.985.

What about the relative viability (HCC-78; first compound 0.08 µM) of the same molecule?
The relative viability was 0.582.

And the relative viability (HCC-78; first compound 0.253 µM)?
The relative viability was 0.582.

And the relative viability (HCC-78; first compound 0.8 µM)?
Its relative viability is 0.604.

What about the relative viability (HCC-78; first compound 2.53 µM) of the same molecule?
Its relative viability is 0.606.

And the relative viability (NCI-H727; first compound 0.08 µM)?
The relative viability was 0.621.

What about the relative viability (NCI-H727; first compound 0.253 µM) of the same molecule?
The relative viability was 0.547.

What about the relative viability (NCI-H727; first compound 0.8 µM) of the same molecule?
Its relative viability is 0.574.

What about the relative viability (NCI-H727; first compound 2.53 µM) of the same molecule?
Its relative viability is 0.651.

What about the relative viability (NCI-H2085; first compound 0.08 µM) of the same molecule?
Its relative viability is 1.02.

And the relative viability (NCI-H2085; first compound 0.253 µM)?
Its relative viability is 0.77.

And the relative viability (NCI-H2085; first compound 0.8 µM)?
The relative viability was 0.901.

And the relative viability (NCI-H2085; first compound 2.53 µM)?
Its relative viability is 1.05.
